For this assay, the target named is Sterol 14alpha-demethylase (Mycobacterium tuberculosis, UniProt P9WPP9, F78L).

`O=C(Nc1ccncc1)C(NS(=O)(=O)c1cccc2nsnc12)c1ccccc1` (stereo unspecified) gave a Kd of 23.2 µM.

The Kd is the concentration at which binding is half-saturated. Low readings indicate tighter binding, high ones weaker binding.

(Values after ChEMBL document CHEMBL1138537, “Small-molecule scaffolds for CYP51 inhibitors identified by high-throughput screening and defined by X-ray crystallography” (Antimicrob Agents Chemother, 2007).)
